Assay results: US5726156A, “Cytokine regulatory agents and methods of use in pathologies and conditions associated with altered cytokine levels” (Trega Biosciences, Inc., priority 1995, dated 1998)

Experiments:
IL-1-induced fever = assay: IL-1β-induced temperature increase (fever); assay type: in vivo, rats; settings: 500 μg/kg IP
Procedure: Male Wistar rats (45-75 days old) were placed in a temperature controlled room held at 26° C., which is thermoneutral for the normal body temperature of rats, and were maintained in the room with free access to food and water for 24 hr prior to testing. On the morning of the study, rats were marked for identification and weighed. The temperature of each rat was determined by placing the animal in a regulatory cage designed to minimize stress and inserting a temperature probe (YSI probe #402) 3-5 cm into the animal's rectum. The temperature was recorded 15 sec after the reading stabilized. Measurements were repeated 1 hr later to establish a baseline temperature for each rat.
After the baseline temperatures were established, rats were injected IP with saline, IL-1β or LPS endotoxin. Rats then were injected IP with either saline (control) or various concentrations of EX-2, EX-3, or EX-4 (treated). The temperature of the rats was measured every hr for 6 hr and the inhibition by EX-2, EX-3, or EX-4 of the rise in temperature due to IL-1β or LPS was determined.
In addition, treatment with 50 or 150 μg/kg EX-2 inhibited LPS-induced fever by 45% or 52%, respectively, when measured 6 hr following LPS injection. Furthermore, treatment with 150 μg/kg EX-3 or EX-4 inhibited LPS-induced fever by 57% and 52%, respectively (Table II).

[1] = system: inducible nitric oxide synthase (iNOS); assay: Inducible nitric oxide synthase (iNOS), cGMP accumulation in rat aorta smooth muscle cells; assay type: cell-based; settings: RASMC induced with LPS, IL-1β or TNF-α; 0.1 or 1 μM EX-2
Procedure: Rat aorta smooth muscle cells (RASMC) were isolated from male rats (325-350 g) using the previously published procedures of Gelsterfer et al., Circ. Res. 62:749-756 (1988), which is incorporated herein by reference. Cells were positively identified as smooth muscle cells by indirect immunofluorescent staining for anti-α-actin, using a mouse anti-α-actin antibody and anti-mouse IgG FITC conjugate. Cells were grown in T-75 tissue culture flasks (Corning Delbelco's Glass, Inc.; Corning, NY) in 50% F12 and 50% Delbelco's Modified Eagle Medium (DMEM) supplemented with 10% bovine serum, 0.2 g/1 L-glutamine, penicillin (100 U/ml) and streptomycin (0.1 mg/ml).
Cells between passages 1-5 were pretreated with one of the following: vehicle, LPS (1 μg/ml), IL-1β (10 U/ml), or TNF-α (100 U/ml) for 6 hr. […] Accumulation of cGMP was determined following exposure to 0.3 mM 3-isobutyl-1-methyl xanthine (IBMX in the presence or absence of 1 mM L-arginine. Medium was then rapidly aspirated and 500 μl of 0.1N HCl was added to each well to stop the reactions and extract cGMP. Thirty min later, the HC1 extract was collected and cell remnants removed from the wells by adding hot 1.0N NaOH and scraping the well with a rubber policeman. The HCl extract was analyzed for cGMP by RIA and the NaOH-solubilized cell remnants were used for protein determination. […]

Zucker NIDDM diabetes = assay: Heritable diabetes, Zucker NIDDM rats; assay type: in vivo; settings: 25 μg/kg every 8 hr for approximately three months
Procedure: Male Zucker rats are a well established rat model for heritable non-insulin dependent diabetes mellitus (NIDDM), as described, for example, by Ward et al., Ann. Clin. Lab. Sci., 24:266-277, (1994), which is incorporated herein by reference. Eighteen male Zucker rats were used to study the effects of EX-2 on NIDDM, a chronic disease. The rats were placed into two groups and received either saline or 25 μg/kg EX-2 every 8 hr for approximately three months. Blood samples were collected by tail clip and urine samples were collected by placing animals in metabolic cages fro 24 hr. Plasma insulin was assayed using an RIA kit (Amersham Life Sciences, Arlington Heights, Ill.). Urine protein was assayed for using a commercial protein assay kit (Coomassie Plus, Pierce, Rockford, Ill.). Body weighed measurements were made with a Mettler Toledo top loader balance.

Ac-Nle-Gln-His-(D)Phe-Arg-(D)Trp-Gly-NH2 [EX-2]
Reduction in IL-1-induced Fever (IL-1-induced fever): 52% | % Reduction of induced increase, iNOS, cGMP (pmol/100 mg/15 min) [1]: 60% | % Reduction, Zucker NIDDM Diabetes, Body Weight (grams) (Zucker NIDDM diabetes): 32% | % Reduction, Zucker NIDDM Diabetes, Insulin (ng/ml) (Zucker NIDDM diabetes): 39% | % Reduction, Zucker NIDDM Diabetes, Urine Protein (mg/24 hr) (Zucker NIDDM diabetes): 87% | decrease in body weight (Zucker NIDDM diabetes): approximately 100 gram
